Experimental data published in patent US20080267948A1, “Croos-B Structure Binding Compounds” (priority 2005, published 2008).
“Also recorded” adds a separate entry of the source.

Tests used:
[1] = biological target: T1, ovalbumin (Gallus gallus, UniProt P01012); assay: Transmission electron microscopy of ovalbumin heated in the presence of small compounds; set-up: species or system chicken; conditions: 1 mg/ml ovalbumin heated with 1 mg/ml compound
T1 construct: purchased Sigma A5503
T1 sequence (P01012 1-386): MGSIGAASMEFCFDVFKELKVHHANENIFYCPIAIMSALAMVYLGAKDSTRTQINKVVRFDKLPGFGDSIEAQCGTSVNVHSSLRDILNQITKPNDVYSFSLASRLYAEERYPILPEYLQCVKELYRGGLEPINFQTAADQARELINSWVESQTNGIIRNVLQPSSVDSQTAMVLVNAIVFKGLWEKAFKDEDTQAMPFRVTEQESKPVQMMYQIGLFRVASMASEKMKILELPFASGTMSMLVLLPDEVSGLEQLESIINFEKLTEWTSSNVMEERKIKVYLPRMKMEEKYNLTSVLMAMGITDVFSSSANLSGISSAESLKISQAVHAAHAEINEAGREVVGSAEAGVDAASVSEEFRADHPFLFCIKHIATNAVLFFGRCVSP
Method in brief: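 Ovalbumin at 1 mg/ml was applied to carbon-coated Formvar copper grids, washed with PBS and water, then stained 2 min in 2% methylcellulose with 0.4% uranyl acetate, pH 4. Grids were dried and imaged by TEM at 80 kV.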

[2] = test system: misfolded proteins (Hb-AGE, Aβ); assay: Binding of misfolded proteins from solution to immobilized small compounds (overall); conditions: compounds coated on ELISA plates, Hb-AGE or Aβ in solution
Protocol: (§1) To test the ability of the twelve selected compounds (see Table 7) to bind to misfolded proteins, the compounds were immobilized at 10/100/1000 μg/ml in the wells of 96-wells Greiner Microlon high binding plates, Nunc amino Immobilizer plates and Nunc Maxisorp plates. Compounds were coated in 100 mM NaHCO3 pH 9.6, 50 μl/well, 1 h at room temperature with agitation. As a control, wells were coated with buffer only. After blocking of the plates, wells were overlayed with solutions of 0.1/1/10 μg/ml Hb-AGE or 10/100 μg/ml Aβ, in binding buffer (PBS/0.1% Tween20). After washing, binding of Hb-AGE was assessed by overlaying wells with 1 μg/ml hybridoma antibody 4B5, which binds to glycations(^2), followed by RAMPO. Binding of Aβ was visualized using 500× diluted anti-Aβ antibodies (mouse antibody beta-amyloid Clone 6F/3D #M0872, lot 00003503, DAKOCytomation; β-amyloid (H-43) SC-9129, 200 μg/ml rabbit polyclonal IgG, Santa Cruz Biotechnology) and RAMPO/SWARPO in a 1:1 ratio. Finally, wells were overlayed with OPD/H2O2 solution, and H2SO4, before absorbance readings at 490 nm.

[3] = information found on the www, search completed Spring 2006; cited from earlier work
[4] = biological target: T2, tPA/plasminogen (Homo sapiens, UniProt P00750); assay: tPA/plasminogen activation by OVA heated in the presence of compounds (substrate PNAPEP1751); assay type: biochemical; conditions: 25 μg/ml OVA, 25 μg/ml compound, […] DMSO
T2 construct: purchased Boehringer Ingelheim Actilyse
T2 sequence (P00750 36-562): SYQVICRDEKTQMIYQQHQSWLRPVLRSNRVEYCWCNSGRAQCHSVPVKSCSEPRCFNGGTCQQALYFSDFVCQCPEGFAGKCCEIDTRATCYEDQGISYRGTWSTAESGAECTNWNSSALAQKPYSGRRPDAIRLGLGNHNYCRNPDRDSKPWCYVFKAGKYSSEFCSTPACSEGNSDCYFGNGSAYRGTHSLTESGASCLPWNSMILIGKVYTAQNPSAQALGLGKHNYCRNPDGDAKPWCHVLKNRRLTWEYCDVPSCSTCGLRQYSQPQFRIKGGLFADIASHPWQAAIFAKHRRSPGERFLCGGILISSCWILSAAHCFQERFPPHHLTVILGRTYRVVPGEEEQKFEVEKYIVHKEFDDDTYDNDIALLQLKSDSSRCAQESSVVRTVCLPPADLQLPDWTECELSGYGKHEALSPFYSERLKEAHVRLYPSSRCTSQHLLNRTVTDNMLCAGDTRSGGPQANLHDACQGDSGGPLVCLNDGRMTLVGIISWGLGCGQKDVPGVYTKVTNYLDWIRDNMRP
Method in brief: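 Ovalbumin heated alone in PBS/1% DMSO (positive control) or with compounds at 1 mg/ml, then used 40-fold diluted in a tPA/plasminogen activation assay; buffer without OVA as negative control. Chromogenic substrate conversion read at 405 nm, with compound interference at 405 nm checked; signals related to control.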

[5] = biological target: T3, Aβ (Homo sapiens, UniProt P05067, E693Q); assay: Binding of Aβ from solution to immobilized small compounds; conditions: Greiner Microlon, coat 100 μg/ml, Aβ 100 μg/ml
T3 construct: Lyophilized human amyloid-β(1-40) with E22Q mutation ‘Dutch type’; purchased Peptide facility, Dutch Cancer Institute, Amsterdam; host or cells: synthetic peptide
Protocol: as §1, with “the compounds were immobilized at 10/100/1000 μg/ml in the wells of 96-wells” left out

[6] = biological target: T4, heat-denatured misfolded ovalbumin (DOVA) (Gallus gallus, UniProt P01012); assay: ELISA binding of tPA to immobilized misfolded ovalbumin after pre-incubation with compounds; set-up: species or system chicken; conditions: misfolded OVA first overlayed with compound (concentration series), then tPA
T4 construct: purchased Sigma A5503
T4 sequence (P01012 2-386 limits assumed): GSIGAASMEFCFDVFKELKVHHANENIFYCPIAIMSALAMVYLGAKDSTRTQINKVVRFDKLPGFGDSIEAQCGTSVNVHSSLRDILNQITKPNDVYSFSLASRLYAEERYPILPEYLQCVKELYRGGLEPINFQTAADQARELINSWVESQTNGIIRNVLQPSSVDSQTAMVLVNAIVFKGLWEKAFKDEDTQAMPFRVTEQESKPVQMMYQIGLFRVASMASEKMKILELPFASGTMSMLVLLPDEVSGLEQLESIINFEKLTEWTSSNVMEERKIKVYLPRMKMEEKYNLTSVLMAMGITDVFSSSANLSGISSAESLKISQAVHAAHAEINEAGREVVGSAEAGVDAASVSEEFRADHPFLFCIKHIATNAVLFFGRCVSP
Protocol: Compounds were now diluted 10× in PBS/0.1% Tween20 (500 μg/ml compound). […] With this approach a further selection of the compounds was achieved. Now, compounds that at least interact with HB-AGE are selected. With the selection, similar binding assays are performed with misfolded OVA and Aβ. Finally, concentration series of the selected compounds are used in the binding studies.

[7] = biological target: T5, heat-denatured ovalbumin (Gallus gallus, UniProt P01012); assay: Thioflavin T fluorescence of ovalbumin and small compounds; set-up: species or system chicken; conditions: 1 mg/ml compound, 1 mg/ml OVA
T5 construct: purchased Sigma A5503
T5 sequence (P01012 1-386): T1 sequence (P01012 1-386)
Method in brief: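 Heat-denatured ovalbumin at 1 mg/ml in PBS, alone, with 1% v/v DMSO or with 1 mg/ml compound (also heat-denatured after compound addition), mixed 1:9 with 25 μM ThT in 50 mM glycine pH 9.0. Fluorescence read in duplicate at 435 nm excitation, 485 nm emission.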

[8] = biological target: tPA (Homo sapiens, UniProt P00750); assay: Plasminogen activation assay (tPA-mediated conversion of Plg to plasmin); assay type: biochemical; set-up: purchased Boehringer-Ingelheim Actilyse; conditions: 100 μg ml^−1 protein or peptide, 400 pM tPA, substrate S-2251
tPA, sequence (P00750 36-562): as the sequence (P00750 36-562) above
Protocol: Plasmin (Plm) activity was assayed as described^4. Peptides and proteins that were tested for their stimulatory ability were used at 100 μg ml^−1, unless stated otherwise. […] Chromogenic substrate S-2251 (Chromogenix, Instrumentation Laboratory SpA, Milano, Italy) was used to measure Pls activity.
Purification of β2-glycoprotein I (β2GPI) was performed according to established methods^15,16. Recombinant human β2GPI was made using insect cells and purified as described^15. Plasma derived β2GPI as used in a factor XII ELISA, the Plg-activation assay and in the anti-phospholipid syndrome antibody ELISA (see below), was purified from fresh human plasma as described^16. […]
Solutions of fibrin peptide FP6, NH2—IDIKIR-COOH (Peptide facility, Dutch Cancer Institute, Amsterdam, the Netherlands) were prepared in various ways. […] Separate samples were prepared similarly and analyzed by electron spray ionization mass spectrometry (ESI-MS) to obtain information on the distribution of the peptide over putatively present oligomers (Dr C. Versluis, Department of Biomolecular Mass Spectrometry, Bijvoet Center for Biomolecular Research, Utrecht University, Utrecht, The Netherlands). […] Micrographs were recorded at 80 kV, at suitable magnifications on a JEM-1200EX electron microscope (JEOL, Japan).

| Compound | appearance of ovalbumin heated in the presence of compound on TEM image [1] | capture of misfolded protein from solution by immobilized compound [2] | Use or activity in vitro/in vivo [3] | influence on tPA/plasminogen activation by OVA pre-heated in the presence of compound [4] | Signal (a.u.) [5] [a.u.] | influence on tPA binding to immobilized misfolded OVA [6] | influence on Thioflavin T fluorescence with misfolded OVA [7] | stimulation of tPA-mediated conversion of Plg to plasmin [8] |
| --- | --- | --- | --- | --- | --- | --- | --- | --- |
| COc1cc2c(C=O)c3c4c(cc(OC)c(OC)c4c2cc1OC)CCN3C [compound 214, dehydroglaucine derivative] | Smaller but more dense aggregates than in Control | Capture of misfolded protein from solution | inhibitory effect on lipopolysaccharide (LPS)-induced; also recorded: protection of plants from invasion by micro-organisms; also recorded: antimicrobial activity; also recorded: decrease in the blood pressure after applying intravenously; also recorded: bronchoconstrictor effect; also recorded: inhibitory action on the central nervous system | Inhibition of tPA/plasminogen activation by OVA pre-heated | 0.14 | Stimulated tPA binding to immobilized misfolded protein | Inhibition of Thioflavin T fluorescence with misfolded OVA | – |
| H-IDIKIR-OH [FP6, reference compound] | – | – | – | – | – | – | – | activates tPA in the chromogenic plasmin activity assay |
